Experimental data as given in publication PMC5544727, “The type IV pilus assembly ATPase PilB functions as a signaling protein to regulate exopolysaccharide production in Myxococcus xanthus” (Scientific Reports, 2017).
Substitutions are numbered along the chain they refer to.

Key:
Type in all cases: binding
[1] = target: T1, PilB^WA (T. thermophilus PilB/PilF, TtPilB) (Thermus thermophilus, UniProt Q5SLC9, K654A); assay: near-UV CD spectral shift (less pronounced than WT), […] ligand
T1 sequence (Q5SLC9 1-889 K654A): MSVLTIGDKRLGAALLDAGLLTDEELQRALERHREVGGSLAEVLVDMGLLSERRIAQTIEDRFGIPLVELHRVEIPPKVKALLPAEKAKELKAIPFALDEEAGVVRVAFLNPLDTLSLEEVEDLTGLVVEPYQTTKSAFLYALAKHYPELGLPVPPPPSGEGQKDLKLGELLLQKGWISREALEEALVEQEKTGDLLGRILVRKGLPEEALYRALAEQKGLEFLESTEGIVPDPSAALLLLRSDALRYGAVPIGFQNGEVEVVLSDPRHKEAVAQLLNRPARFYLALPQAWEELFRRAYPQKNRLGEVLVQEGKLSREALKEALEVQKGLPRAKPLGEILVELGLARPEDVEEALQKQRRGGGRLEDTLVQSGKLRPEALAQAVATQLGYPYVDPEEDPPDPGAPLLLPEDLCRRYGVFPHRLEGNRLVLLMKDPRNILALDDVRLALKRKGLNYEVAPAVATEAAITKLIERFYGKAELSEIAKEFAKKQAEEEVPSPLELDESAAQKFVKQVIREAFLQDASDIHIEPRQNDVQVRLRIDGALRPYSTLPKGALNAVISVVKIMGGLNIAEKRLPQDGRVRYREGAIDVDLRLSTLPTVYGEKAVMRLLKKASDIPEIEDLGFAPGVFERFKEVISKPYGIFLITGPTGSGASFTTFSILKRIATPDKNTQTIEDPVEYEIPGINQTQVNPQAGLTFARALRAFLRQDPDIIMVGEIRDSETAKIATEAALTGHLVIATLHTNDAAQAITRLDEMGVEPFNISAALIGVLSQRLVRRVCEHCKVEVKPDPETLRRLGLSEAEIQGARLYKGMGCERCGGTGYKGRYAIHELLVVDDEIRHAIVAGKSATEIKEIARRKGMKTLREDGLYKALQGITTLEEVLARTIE

[2] = target: T2, PilB^WT (T. thermophilus PilB/PilF, TtPilB) (Thermus thermophilus, UniProt Q72H73); assay: DSF thermal stabilization, […] ligand (no Kd)
[3] = target: T3, PilB^WB (T. thermophilus PilB/PilF, TtPilB) (Thermus thermophilus, UniProt Q5SLC9, E718A); assay: DSF thermal stabilization, […] ligand (no Kd)
T3 sequence (Q5SLC9 1-889 E718A): T1 sequence (Q5SLC9 1-889 K654A) with A654K, E718A

[4] = target: T1, PilB^WA (T. thermophilus PilB/PilF, TtPilB); assay: fluorescence titration of MANT-ATP with purified protein
[5] = target: T2, PilB^WT (T. thermophilus PilB/PilF, TtPilB); assay: as above
[6] = target: T3, PilB^WB (T. thermophilus PilB/PilF, TtPilB); assay: as above
[7] = target: T2, PilB^WT (T. thermophilus PilB/PilF, TtPilB); assay: near-UV CD spectral shift, […] ligand
[8] = target: T3, PilB^WB (T. thermophilus PilB/PilF, TtPilB); assay: near-UV CD spectral shift, […] ligand

T2 sequence (Q72H73 entry or part of it): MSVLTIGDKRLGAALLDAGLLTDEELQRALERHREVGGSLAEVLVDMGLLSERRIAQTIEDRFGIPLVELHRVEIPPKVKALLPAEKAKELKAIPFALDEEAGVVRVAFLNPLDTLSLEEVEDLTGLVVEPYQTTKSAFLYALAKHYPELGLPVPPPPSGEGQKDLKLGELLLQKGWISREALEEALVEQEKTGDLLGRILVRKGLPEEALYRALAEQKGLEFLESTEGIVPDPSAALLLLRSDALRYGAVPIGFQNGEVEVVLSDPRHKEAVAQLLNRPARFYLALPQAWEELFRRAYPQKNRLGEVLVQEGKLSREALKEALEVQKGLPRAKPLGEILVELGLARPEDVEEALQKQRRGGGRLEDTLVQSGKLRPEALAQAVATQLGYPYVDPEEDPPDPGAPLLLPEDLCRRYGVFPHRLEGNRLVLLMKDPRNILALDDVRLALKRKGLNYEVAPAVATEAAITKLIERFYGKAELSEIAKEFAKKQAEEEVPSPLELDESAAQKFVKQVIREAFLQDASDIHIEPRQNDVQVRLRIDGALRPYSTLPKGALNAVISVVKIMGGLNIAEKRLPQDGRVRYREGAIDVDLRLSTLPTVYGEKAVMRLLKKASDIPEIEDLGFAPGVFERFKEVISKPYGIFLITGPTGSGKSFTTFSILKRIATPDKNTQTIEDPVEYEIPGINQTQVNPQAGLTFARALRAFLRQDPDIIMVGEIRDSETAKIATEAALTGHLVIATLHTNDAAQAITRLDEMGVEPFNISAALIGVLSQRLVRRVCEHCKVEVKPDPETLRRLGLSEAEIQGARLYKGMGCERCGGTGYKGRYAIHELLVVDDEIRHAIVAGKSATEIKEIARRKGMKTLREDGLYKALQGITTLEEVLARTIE

## Nc1ncnc2c1ncn2[C@@H]1O[C@H](COP(=O)(O)OP(=O)(O)OP(=O)(O)O)[C@@H](O)[C@H]1O [ATP]
[1]
  near-UV CD spectral shift (less pronounced than WT), 0.1 mM ligand: the shift for PilB^WA is less pronounced compared to those seen for the other two

## Nc1ncnc2c1ncn2[C@@H]1O[C@H](CO[P@](=O)(O)O[P@](=O)(O)NP(=O)(O)O)[C@@H](O)[C@H]1O [AMP-PNP, adenosine 5′-(β,γ-imido)triphosphate]
[2]
  DSF thermal stabilization, 0.4 mM ligand (no Kd): This nucleotide stabilized both PilB^WT and PilB^WB, resulting in the disappearance of the first unfolding transition
[3]
  DSF thermal stabilization, 0.4 mM ligand (no Kd): This nucleotide stabilized both PilB^WT and PilB^WB, resulting in the disappearance of the first unfolding transition

## CNc1ccccc1C(=O)O[C@H]1[C@@H](O)[C@H](n2cnc3c(N)ncnc32)O[C@@H]1CO[P@@](=O)(O)O[P@](=O)(O)OP(=O)(O)O (mixture of isomers) [MANT-ATP, 2′-/3′-O-(N-methylanthraniloyl) adenosine-5′-triphosphate]
[4]
  Kd: 1230 nM
[5]
  Kd: 170 nM
[6]
  Kd: 190 nM

## Nc1ncnc2c1ncn2[C@@H]1O[C@H](COP(=O)(O)OP(=O)(O)O)[C@@H](O)[C@H]1O [ADP]
[7]
  near-UV CD spectral shift, 0.1 mM ligand: The addition of ADP also shifted the spectra of PilB^WT and PilB^WB, but not that of PilB^WA
[8]
  near-UV CD spectral shift, 0.1 mM ligand: The addition of ADP also shifted the spectra of PilB^WT and PilB^WB, but not that of PilB^WA
